Legend:
[1] = target: Interleukin-1 receptor-associated kinase 1 (Homo sapiens) (UniProt P51617); settings: Compound concentration 1000.0 nM
[2] = target: Mitogen-activated protein kinase kinase kinase 1 (Homo sapiens) (UniProt Q13233); settings: Compound concentration 1000.0 nM
[3] = target: Tyrosine-protein kinase Lyn (Homo sapiens) (UniProt P07948); settings: Compound concentration 1000.0 nM
[4] = target: Fibroblast growth factor receptor 2 (Homo sapiens) (UniProt P21802); settings: Compound concentration 1000.0 nM
[5] = target: Mitogen-activated protein kinase kinase kinase 12 (Homo sapiens) (UniProt Q12852); settings: Compound concentration 1000.0 nM
[6] = target: Phosphatidylinositol 4,5-bisphosphate 3-kinase catalytic subunit alpha isoform (Homo sapiens) (UniProt P42336); settings: Compound concentration 1000.0 nM
[7] = target: Serine/threonine-protein kinase RIO1 (Homo sapiens) (UniProt Q9BRS2); settings: Compound concentration 1000.0 nM
[8] = target: Cyclin-dependent kinase 3 (Homo sapiens) (UniProt Q00526); settings: Compound concentration 1000.0 nM
[9] = target: TGF-beta receptor type-2 (Homo sapiens) (UniProt P37173); settings: Compound concentration 1000.0 nM
[10] = target: Serine/threonine-protein kinase VRK2 (Homo sapiens) (UniProt Q86Y07); settings: Compound concentration 1000.0 nM
[11] = target: Non-receptor tyrosine-protein kinase TNK1 (Homo sapiens) (UniProt Q13470); settings: Compound concentration 1000.0 nM
[12] = target: Calcium/calmodulin-dependent protein kinase type 1D (Homo sapiens) (UniProt Q8IU85); settings: Compound concentration 1000.0 nM
[13] = target: Ribosomal protein S6 kinase alpha-3 (Homo sapiens) (UniProt P51812); settings: Compound concentration 1000.0 nM
[14] = tested on: Receptor-type tyrosine-protein kinase FLT3 (Homo sapiens), P36888 [UNDEFINED MUTATION]; settings: Compound concentration 1000.0 nM
[15] = target: Leukocyte tyrosine kinase receptor (Homo sapiens) (UniProt P29376); settings: Compound concentration 1000.0 nM
[16] = target: Serine/threonine-protein kinase PAK 5 (Homo sapiens) (UniProt Q9P286); settings: Compound concentration 1000.0 nM
[17] = tested on: Receptor-type tyrosine-protein kinase FLT3 (Homo sapiens), P36888 [D835Y]; settings: Compound concentration 1000.0 nM
[18] = target: Serine/threonine-protein kinase TAO1 (Homo sapiens) (UniProt Q7L7X3); settings: Compound concentration 1000.0 nM
[19] = target: Tyrosine-protein kinase receptor Tie-1 (Homo sapiens) (UniProt P35590); settings: Compound concentration 1000.0 nM
Chain of Tyrosine-protein kinase receptor Tie-1 (Homo sapiens) (P35590 whole entry): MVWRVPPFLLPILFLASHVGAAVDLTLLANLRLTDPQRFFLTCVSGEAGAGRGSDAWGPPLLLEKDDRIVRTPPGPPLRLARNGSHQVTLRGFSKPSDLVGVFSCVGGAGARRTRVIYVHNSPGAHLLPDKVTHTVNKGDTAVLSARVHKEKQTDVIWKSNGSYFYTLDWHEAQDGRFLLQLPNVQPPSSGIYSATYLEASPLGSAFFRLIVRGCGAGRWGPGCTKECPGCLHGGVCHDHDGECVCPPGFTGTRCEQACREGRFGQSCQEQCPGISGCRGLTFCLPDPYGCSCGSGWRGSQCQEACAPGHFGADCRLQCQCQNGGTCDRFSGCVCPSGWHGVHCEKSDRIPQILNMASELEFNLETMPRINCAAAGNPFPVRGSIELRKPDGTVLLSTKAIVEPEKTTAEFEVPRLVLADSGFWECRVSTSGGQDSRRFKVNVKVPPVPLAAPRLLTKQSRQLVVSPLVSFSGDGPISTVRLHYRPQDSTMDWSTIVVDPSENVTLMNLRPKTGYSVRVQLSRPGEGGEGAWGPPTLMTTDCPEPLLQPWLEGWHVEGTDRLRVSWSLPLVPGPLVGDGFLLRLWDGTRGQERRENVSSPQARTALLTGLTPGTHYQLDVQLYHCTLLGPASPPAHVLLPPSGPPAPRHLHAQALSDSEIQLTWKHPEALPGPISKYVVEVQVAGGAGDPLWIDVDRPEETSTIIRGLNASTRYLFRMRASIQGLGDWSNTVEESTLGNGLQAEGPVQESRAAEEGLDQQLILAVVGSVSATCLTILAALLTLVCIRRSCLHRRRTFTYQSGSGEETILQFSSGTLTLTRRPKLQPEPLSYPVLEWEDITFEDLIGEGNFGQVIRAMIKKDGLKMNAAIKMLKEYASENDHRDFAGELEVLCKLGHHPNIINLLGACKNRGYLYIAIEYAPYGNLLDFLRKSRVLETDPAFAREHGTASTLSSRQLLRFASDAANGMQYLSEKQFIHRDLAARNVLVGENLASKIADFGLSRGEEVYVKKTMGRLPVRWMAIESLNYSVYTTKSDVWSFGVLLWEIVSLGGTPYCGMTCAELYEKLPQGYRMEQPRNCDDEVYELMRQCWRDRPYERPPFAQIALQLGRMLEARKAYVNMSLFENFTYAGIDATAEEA

[20] = target: Mitogen-activated protein kinase 7 (Homo sapiens) (UniProt Q13164); settings: Compound concentration 1000.0 nM
Chain of Mitogen-activated protein kinase 7 (Homo sapiens) (Q13164 2-816 limits assumed): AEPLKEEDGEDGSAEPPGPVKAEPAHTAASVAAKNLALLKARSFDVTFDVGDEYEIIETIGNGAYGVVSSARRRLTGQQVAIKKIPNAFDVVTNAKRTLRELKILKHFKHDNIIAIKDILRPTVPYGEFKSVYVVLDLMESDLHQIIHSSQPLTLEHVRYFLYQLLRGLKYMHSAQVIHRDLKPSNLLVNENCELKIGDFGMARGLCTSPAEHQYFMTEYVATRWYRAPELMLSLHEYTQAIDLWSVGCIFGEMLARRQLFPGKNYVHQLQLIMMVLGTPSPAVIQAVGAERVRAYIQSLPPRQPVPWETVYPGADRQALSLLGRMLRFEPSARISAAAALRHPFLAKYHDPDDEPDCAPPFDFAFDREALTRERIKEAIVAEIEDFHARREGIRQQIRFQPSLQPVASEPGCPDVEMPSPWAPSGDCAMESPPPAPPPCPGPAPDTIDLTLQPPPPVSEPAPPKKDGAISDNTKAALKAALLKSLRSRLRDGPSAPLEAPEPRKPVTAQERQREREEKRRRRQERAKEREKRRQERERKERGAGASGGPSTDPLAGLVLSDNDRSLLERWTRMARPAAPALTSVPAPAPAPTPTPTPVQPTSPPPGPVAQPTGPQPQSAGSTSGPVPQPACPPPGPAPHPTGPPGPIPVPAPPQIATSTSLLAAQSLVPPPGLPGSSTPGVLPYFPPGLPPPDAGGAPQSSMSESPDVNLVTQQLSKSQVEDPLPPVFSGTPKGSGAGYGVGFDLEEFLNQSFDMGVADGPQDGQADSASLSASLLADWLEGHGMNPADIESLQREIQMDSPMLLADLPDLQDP

[21] = target: Phosphorylase b kinase gamma catalytic chain, skeletal muscle/heart isoform (Homo sapiens) (UniProt Q16816); settings: Compound concentration 1000.0 nM
[22] = target: MAP kinase-interacting serine/threonine-protein kinase 2 (Homo sapiens) (UniProt Q9HBH9); settings: Compound concentration 1000.0 nM
[23] = target: SRSF protein kinase 1 (Homo sapiens) (UniProt Q96SB4); settings: Compound concentration 1000.0 nM
[24] = tested on: Hepatocyte growth factor receptor (Homo sapiens), P08581 [M1250T]; settings: Compound concentration 1000.0 nM
[25] = target: Membrane-associated tyrosine- and threonine-specific cdc2-inhibitory kinase (Homo sapiens) (UniProt Q99640); settings: Compound concentration 1000.0 nM
Chain of Membrane-associated tyrosine- and threonine-specific cdc2-inhibitory kinase (Homo sapiens) (Q99640 whole entry): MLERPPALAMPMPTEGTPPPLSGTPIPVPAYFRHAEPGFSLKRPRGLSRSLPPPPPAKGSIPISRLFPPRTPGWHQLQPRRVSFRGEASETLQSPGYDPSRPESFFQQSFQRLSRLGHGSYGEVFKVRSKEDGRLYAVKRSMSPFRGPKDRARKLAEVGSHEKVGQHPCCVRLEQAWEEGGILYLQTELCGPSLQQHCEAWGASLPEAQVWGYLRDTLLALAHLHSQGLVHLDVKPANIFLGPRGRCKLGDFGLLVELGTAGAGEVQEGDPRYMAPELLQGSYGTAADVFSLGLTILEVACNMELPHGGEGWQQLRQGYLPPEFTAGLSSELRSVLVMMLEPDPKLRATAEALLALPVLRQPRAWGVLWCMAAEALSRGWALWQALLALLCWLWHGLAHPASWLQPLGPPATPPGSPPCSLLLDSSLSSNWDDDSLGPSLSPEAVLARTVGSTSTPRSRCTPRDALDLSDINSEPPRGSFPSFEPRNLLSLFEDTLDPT

[26] = target: Ephrin type-B receptor 6 (Homo sapiens) (UniProt O15197); settings: Compound concentration 1000.0 nM
[27] = target: D(1B) dopamine receptor (Homo sapiens) (UniProt P21918); settings: Compound concentration 10.0 uM
Chain of D(1B) dopamine receptor (Homo sapiens) (P21918 whole entry): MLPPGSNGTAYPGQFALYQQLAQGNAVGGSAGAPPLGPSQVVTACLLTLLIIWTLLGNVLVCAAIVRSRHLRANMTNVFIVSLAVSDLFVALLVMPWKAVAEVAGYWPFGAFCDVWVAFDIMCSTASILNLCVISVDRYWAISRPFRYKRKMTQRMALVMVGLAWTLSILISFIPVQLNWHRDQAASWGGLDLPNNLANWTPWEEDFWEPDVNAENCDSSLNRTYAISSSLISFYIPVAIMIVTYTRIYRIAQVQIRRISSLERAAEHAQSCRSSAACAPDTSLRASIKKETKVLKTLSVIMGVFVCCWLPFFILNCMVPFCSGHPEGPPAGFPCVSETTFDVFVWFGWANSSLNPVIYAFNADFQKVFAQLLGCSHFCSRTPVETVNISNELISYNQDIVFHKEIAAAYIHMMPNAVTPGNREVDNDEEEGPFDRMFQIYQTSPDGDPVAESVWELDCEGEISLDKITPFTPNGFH

[28] = target: 3-phosphoinositide-dependent protein kinase 1 (Homo sapiens) (UniProt O15530); settings: Compound concentration 1000.0 nM
[29] = target: Atypical kinase COQ8A, mitochondrial (Homo sapiens) (UniProt Q8NI60); settings: Compound concentration 1000.0 nM
[30] = target: Serine/threonine-protein kinase PAK 2 (Homo sapiens) (UniProt Q13177); settings: Compound concentration 1000.0 nM
[31] = target: Mitogen-activated protein kinase 10 (Homo sapiens) (UniProt P53779); settings: Compound concentration 1000.0 nM
Chain of Mitogen-activated protein kinase 10 (Homo sapiens) (P53779 whole entry): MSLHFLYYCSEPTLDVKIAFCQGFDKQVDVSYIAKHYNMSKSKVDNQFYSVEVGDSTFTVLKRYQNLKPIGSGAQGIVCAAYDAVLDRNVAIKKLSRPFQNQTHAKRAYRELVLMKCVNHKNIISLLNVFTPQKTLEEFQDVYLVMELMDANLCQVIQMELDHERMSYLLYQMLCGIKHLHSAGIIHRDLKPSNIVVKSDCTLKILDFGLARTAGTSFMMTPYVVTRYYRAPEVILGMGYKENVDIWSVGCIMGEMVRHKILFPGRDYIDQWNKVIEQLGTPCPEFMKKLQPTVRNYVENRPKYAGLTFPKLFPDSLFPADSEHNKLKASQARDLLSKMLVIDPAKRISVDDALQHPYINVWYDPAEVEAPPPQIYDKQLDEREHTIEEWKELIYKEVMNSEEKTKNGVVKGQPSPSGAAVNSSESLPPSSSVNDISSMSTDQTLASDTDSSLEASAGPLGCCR

[32] = target: Ribosomal protein S6 kinase alpha-6 (Homo sapiens) (UniProt Q9UK32); settings: Compound concentration 1000.0 nM
[33] = target: Mitogen-activated protein kinase kinase kinase 15 (Homo sapiens) (UniProt Q6ZN16); settings: Compound concentration 1000.0 nM
Chain of Mitogen-activated protein kinase kinase kinase 15 (Homo sapiens) (Q6ZN16 whole entry): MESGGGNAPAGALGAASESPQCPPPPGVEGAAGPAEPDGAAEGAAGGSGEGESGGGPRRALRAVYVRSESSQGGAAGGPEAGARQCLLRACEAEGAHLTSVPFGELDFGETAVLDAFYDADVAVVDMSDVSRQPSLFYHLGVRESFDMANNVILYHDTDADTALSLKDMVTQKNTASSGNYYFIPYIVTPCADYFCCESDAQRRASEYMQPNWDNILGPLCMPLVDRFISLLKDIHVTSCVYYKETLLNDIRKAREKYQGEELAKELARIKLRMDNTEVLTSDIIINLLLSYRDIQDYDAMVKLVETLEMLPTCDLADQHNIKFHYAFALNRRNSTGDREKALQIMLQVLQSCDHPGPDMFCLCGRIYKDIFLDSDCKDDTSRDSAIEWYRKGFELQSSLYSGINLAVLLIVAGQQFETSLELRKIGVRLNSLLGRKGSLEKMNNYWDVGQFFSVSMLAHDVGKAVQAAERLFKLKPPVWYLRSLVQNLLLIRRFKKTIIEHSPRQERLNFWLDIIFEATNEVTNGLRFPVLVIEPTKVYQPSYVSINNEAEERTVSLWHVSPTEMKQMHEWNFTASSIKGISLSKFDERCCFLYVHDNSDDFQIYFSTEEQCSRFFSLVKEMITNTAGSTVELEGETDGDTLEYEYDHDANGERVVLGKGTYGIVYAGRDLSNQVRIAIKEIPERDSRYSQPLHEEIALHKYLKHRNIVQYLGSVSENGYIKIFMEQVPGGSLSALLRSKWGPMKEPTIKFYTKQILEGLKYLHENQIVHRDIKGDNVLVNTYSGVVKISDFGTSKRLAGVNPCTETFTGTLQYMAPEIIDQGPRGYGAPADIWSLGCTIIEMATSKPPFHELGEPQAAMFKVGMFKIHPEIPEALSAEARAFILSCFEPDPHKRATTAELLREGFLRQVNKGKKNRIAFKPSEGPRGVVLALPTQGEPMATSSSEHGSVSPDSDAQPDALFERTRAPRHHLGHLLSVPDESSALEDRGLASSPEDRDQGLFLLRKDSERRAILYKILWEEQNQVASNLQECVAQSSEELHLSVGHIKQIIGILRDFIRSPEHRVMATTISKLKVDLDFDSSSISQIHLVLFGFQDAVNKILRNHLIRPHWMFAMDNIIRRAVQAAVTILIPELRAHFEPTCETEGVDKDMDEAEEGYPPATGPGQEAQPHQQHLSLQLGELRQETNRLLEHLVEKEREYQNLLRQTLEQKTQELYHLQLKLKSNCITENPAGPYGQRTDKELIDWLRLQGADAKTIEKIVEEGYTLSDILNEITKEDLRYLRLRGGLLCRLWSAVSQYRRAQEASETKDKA

[34] = target: Ephrin type-A receptor 1 (Homo sapiens) (UniProt P21709); settings: Compound concentration 1000.0 nM
[35] = target: Aurora kinase A (Homo sapiens) (UniProt O14965); settings: Compound concentration 1000.0 nM
[36] = target: Sigma non-opioid intracellular receptor 1 (Homo sapiens) (UniProt Q99720); settings: Compound concentration 10.0 uM
[37] = target: Serine/threonine-protein kinase Nek5 (Homo sapiens) (UniProt Q6P3R8); settings: Compound concentration 1000.0 nM
[38] = target: Death-associated protein kinase 1 (Homo sapiens) (UniProt P53355); settings: Compound concentration 1000.0 nM
[39] = target: Wee1-like protein kinase (Homo sapiens) (UniProt P30291); settings: Compound concentration 1000.0 nM
[40] = target: Cyclin-dependent kinase 7 (Homo sapiens) (UniProt P50613); settings: Compound concentration 1000.0 nM
Chain of Cyclin-dependent kinase 7 (Homo sapiens) (P50613 whole entry): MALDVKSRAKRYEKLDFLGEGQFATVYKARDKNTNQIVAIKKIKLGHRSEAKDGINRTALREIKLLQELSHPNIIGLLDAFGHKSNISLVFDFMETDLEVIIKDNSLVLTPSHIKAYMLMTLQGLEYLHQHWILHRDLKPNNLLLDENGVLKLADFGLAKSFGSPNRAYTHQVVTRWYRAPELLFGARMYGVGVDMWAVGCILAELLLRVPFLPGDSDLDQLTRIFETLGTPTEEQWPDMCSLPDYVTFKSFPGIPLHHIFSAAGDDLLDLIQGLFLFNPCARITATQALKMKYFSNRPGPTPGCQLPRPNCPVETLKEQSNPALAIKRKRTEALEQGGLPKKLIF

[41] = target: Mitogen-activated protein kinase kinase kinase 6 (Homo sapiens) (UniProt O95382); settings: Compound concentration 1000.0 nM
[42] = tested on: Tyrosine-protein kinase ABL1 (Homo sapiens), P00519 [M351T]; settings: Compound concentration 1000.0 nM
[43] = tested on: Mast/stem cell growth factor receptor Kit (Homo sapiens), P10721 [V559D,V654A]; settings: Compound concentration 1000.0 nM
[44] = target: Ribosomal protein S6 kinase alpha-4 (Homo sapiens) (UniProt O75676); settings: Compound concentration 1000.0 nM
[45] = target: Inhibitor of nuclear factor kappa-B kinase subunit beta (Homo sapiens) (UniProt O14920); settings: Compound concentration 1000.0 nM

O=C(O)[C@@H]1[C@@H](Cn2nnc3ccccc3c2=O)CC[C@H]1C(=O)c1ccc(OCCC2CCOCC2)cc1 [BAY-694]
inactive: residual activity [1] 82% | residual activity [2] 100% | residual activity [3] 97% | residual activity [4] 100% | residual activity [5] 98% | residual activity [6] 100% | residual activity [7] 100% | residual activity [8] 100% | residual activity [9] 100% | residual activity [10] 80% | residual activity [11] 100% | residual activity [12] 91% | residual activity [13] 85% | residual activity [14] 100% | residual activity [15] 100% | residual activity [16] 96% | residual activity [17] 100% | residual activity [18] 100% | residual activity [19] 100% | residual activity [20] 100% | residual activity [21] 100% | residual activity [22] 99% | residual activity [23] 100% | residual activity [24] 100% | residual activity [25] 82% | residual activity [26] 100% | inhibition [27] 19.6% | residual activity [28] 80% | residual activity [29] 88% | residual activity [30] 82% | residual activity [31] 100% | residual activity [32] 100% | residual activity [33] 54% | residual activity [34] 100% | residual activity [35] 100% | inhibition [36] 29.3% | residual activity [37] 100% | residual activity [38] 100% | residual activity [39] 93% | residual activity [40] 86% | residual activity [41] 79% | residual activity [42] 95% | residual activity [43] 94% | residual activity [44] 100% | residual activity [45] 100%

O=C(O)[C@H]1[C@H](Cn2nnc3ccccc3c2=O)CC[C@@H]1C(=O)c1ccc(OCCC2CCOCC2)cc1 [BAY-7598]
inactive: residual activity [1] 70% | residual activity [2] 100% | residual activity [3] 92% | residual activity [4] 100% | residual activity [5] 88% | residual activity [6] 100% | residual activity [7] 100% | residual activity [8] 100% | residual activity [9] 100% | residual activity [10] 80% | residual activity [11] 100% | residual activity [12] 96% | residual activity [13] 83% | residual activity [14] 93% | residual activity [15] 100% | residual activity [16] 98% | residual activity [17] 96% | residual activity [18] 100% | residual activity [19] 75% | residual activity [20] 100% | residual activity [21] 74% | residual activity [22] 83% | residual activity [23] 79% | residual activity [24] 100% | residual activity [25] 96% | residual activity [26] 89% | inhibition [27] 7.53% | residual activity [28] 74% | residual activity [29] 100% | residual activity [30] 69% | residual activity [31] 83% | residual activity [32] 97% | residual activity [33] 64% | residual activity [34] 100% | residual activity [35] 97% | inhibition [36] 6.09% | residual activity [37] 97% | residual activity [38] 89% | residual activity [39] 100% | residual activity [40] 95% | residual activity [41] 91% | residual activity [42] 82% | residual activity [43] 100% | residual activity [44] 100% | residual activity [45] 100%
